# Source: patent publication US20060167025A1, “Tricyclic amino alcohols, processes for synthesis of same and use of same as anti-inflammatory drugs” (priority 2004, published 2006)
# pIC50: −log10 of the molar value.
# Tests used:
# [1] = molecular target: T1, glucocorticoid receptor (GR) (Homo sapiens, UniProt P04150); experiment: Binding to recombinant glucocorticoid receptor, reference [3H]-dexamethasone; settings: cytosol preparations of Sf9 cells infected with recombinant baculoviruses coding for GR; [3H]-dexamethasone reference
# T1 construct: made in house; host or cells: Sf9 cells infected with recombinant baculovirus (cytosol preparation)
# T1 sequence (P04150 1-777): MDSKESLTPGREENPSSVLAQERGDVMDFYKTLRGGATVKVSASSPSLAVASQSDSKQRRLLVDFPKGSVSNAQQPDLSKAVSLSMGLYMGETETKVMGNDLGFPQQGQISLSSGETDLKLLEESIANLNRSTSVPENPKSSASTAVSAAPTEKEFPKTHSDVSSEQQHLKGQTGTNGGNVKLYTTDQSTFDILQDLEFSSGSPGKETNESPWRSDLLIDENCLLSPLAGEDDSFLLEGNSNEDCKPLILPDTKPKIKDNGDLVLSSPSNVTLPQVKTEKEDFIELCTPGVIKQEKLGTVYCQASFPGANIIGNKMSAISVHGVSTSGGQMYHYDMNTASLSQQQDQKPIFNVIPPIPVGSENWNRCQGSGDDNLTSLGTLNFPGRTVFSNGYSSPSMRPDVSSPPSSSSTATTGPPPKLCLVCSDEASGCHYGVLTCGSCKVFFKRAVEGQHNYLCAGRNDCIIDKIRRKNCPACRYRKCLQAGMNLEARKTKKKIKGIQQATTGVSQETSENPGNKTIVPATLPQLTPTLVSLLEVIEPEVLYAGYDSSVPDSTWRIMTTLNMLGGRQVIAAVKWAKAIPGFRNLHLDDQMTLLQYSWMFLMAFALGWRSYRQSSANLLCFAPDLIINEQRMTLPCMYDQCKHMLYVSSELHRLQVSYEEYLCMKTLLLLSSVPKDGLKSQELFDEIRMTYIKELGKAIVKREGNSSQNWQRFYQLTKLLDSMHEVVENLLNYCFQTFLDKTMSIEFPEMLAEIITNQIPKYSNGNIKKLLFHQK
# Procedure: (§1) The binding of substances to the glucocorticoid receptor (GR) and other steroid hormone receptors (mineral corticoid receptor (MR), progesterone receptor (PR) and androgen receptor (AR)) is tested with the help of recombinant receptors. Cytosol preparations of Sf9 cells infected with recombinant baculoviruses that code for GR are used for binding tests. In comparison with the reference substance [^3H]-dexamethasone, these substances have a high affinity for GR. An IC50 (GR)=20 nM and IC50 (PR)>1 μM have been obtained for the compound from Example 2.
# [2] = molecular target: T2, progesterone receptor (PR) (Homo sapiens, UniProt P06401); experiment: Binding to recombinant progesterone receptor
# T2 sequence (P06401 1-933): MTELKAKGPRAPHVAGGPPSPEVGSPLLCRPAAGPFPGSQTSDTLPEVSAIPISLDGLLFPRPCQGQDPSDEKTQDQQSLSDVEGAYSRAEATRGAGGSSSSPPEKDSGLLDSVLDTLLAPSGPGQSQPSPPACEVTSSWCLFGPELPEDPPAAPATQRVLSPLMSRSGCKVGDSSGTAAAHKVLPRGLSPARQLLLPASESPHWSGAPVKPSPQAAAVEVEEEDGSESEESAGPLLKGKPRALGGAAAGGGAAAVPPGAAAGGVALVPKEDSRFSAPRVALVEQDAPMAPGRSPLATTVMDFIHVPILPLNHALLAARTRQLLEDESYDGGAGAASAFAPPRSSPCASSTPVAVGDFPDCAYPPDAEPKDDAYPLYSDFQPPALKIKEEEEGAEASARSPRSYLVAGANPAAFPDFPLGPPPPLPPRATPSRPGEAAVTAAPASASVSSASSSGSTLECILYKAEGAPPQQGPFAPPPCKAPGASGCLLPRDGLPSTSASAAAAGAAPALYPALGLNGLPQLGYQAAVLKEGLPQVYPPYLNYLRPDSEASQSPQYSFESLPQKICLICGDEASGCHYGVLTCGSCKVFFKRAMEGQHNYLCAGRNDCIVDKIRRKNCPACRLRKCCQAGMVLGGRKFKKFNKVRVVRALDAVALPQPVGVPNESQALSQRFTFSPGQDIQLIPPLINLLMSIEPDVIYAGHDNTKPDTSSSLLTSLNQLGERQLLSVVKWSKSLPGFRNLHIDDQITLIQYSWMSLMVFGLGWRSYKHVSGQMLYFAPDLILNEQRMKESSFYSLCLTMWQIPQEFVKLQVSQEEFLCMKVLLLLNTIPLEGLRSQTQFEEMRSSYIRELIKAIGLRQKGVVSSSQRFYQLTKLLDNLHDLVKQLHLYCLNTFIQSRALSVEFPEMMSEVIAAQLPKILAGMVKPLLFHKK
# Procedure: as §1
# [3] = system: secretion of cytokine IL-8 triggered by lipopolysaccharide (LPS) in the human monocyte cell line THP-1; experiment: Inhibition of LPS-triggered IL-8 secretion in THP-1 cells (ELISA); format: cell-based
# Procedure: The inventive compounds of general formula (I) inhibit the secretion of cytokine IL-8 triggered by lipopolysaccharide (LPS) in the human monocyte cell line THP-1. The concentration of cytokines was determined in the supernatant using commercially available ELISA kits.
compound,measurement,setting,value
"Cc1ccc2c(NC3c4ccc(F)c5c4C(CCO5)CC3(O)C(F)(F)F)cccc2n1 (mixture of isomers) [Example 2, 9-Fluoro-6-[(2-methylquinolin-5-yl)amino]-5-(trifluoromethyl)-2,3,3a,4,5,6-hexahydrobenzo[de]chromen-5-ol]",pIC50,[1],7.70
same,pIC50,[2],< 6.00
same,pIC50,"[3]; Homo sapiens, LPS-stimulated THP-1, IL-8 in supernatant by ELISA, read-out: IC50 (IL8)",7.43
same,efficiency with respect to [3H]-dexamethasone as the standard,[3]; IL-8 inhibition in LPS-stimulated THP-1,70%
